# Measurements from patent US5532267A, “Amidinonaphthyl furancarboxylate derivatives and acid addition salts therof” (Torii & Co., Ltd., priority 1992, dated 1996).
# Columns and labels:
# Masugi's nephritis = test: Effectiveness in treating Masugi's nephritis (experimental glomerulonephritis), protein in urine; format: in vivo, rat; details: 10 mg/kg, oral; mean ± standard deviation, 7 animals; control group 40.8 ± 15.1
# Protocol: […] […] As the index to effectiveness, the protein concentration in urine was determined. That is, when inflammation develops in the kidney, it causes damage to renal tubules, etc., and a resultant increase in protein concentration in urine.
# trypsin = biological target: T1, trypsin (Bos taurus, UniProt P00760); test: anti-trypsin activity, hydrolysis of TAME (tosylarginine methyl ester); format: biochemical; details: hydrolysis of TAME; read-out: Try: molar concentration inhibiting 50% of enzyme activity (IC50)
# T1 sequence (P00760 24-246): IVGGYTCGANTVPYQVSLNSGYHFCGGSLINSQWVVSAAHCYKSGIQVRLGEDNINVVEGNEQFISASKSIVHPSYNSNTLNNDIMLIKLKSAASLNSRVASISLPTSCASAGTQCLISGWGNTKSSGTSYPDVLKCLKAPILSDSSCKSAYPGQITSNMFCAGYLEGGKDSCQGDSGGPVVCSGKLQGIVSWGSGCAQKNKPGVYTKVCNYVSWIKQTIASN
# adjuvant arthritis = test: Effectiveness in treating adjuvant arthritis (Mycobacterium butyricum); format: in vivo, rat; details: 60 mg/kg, oral, day -1 to day 13
# Protocol: Adjuvant arthritis is known as a representative model of autoimmune diseases and is a effective means of testing agents to treat human rheumatoid arthritis (Encyclopedia of Immunology, edited by I. M. Roitt, Academic Press, 1992; Otterness, I. G., et al., J. of Rheumatology (1991), volume 18, pages 505-511),
# The method of experiment was as follows. A 0.6% Mycobacterium butyricum liquid paraffin suspension, 0.1 ml/animal, was administered to a rat at a subcutaneous site of left hind-limb sole to induce adjuvant arthritis. The present compound was orally administered (in the form of a suspension in water) consecutively from 1 day before the induction to 13 days after the induction. The efficacy of the present compound on adjuvant arthritis was evaluated by examining the swelling accompanied by red spots and subcutaneous knots at the fore-limb, hind-limb, tail, ear and periphery of eye with the lapse of days (on the 8th, 10th, 12th, 14th, 16th and 18th days after adjuvant administration), expressing the results in terms of scores according to the method of F. D. Wood et al. (Int. Arch. Allergy (1969), volume 35, pages 456-467), and calculating the percentage inhibition relative to the control group. Thus, the higher value of percentage inhibition indicates the higher effectiveness.
# kallikrein = test: anti-kallikrein activity, hydrolysis of TAME (tosylarginine methyl ester); format: biochemical; details: hydrolysis of TAME; read-out: Kal: molar concentration inhibiting 50% of enzyme activity (IC50)
# Protocol: (§1) The values in Table 1 represent molar concentrations (IC50) of test compounds which inhibit 50% of the activity of each enzyme to hydrolyze TAME (tosylarginine methyl ester). The anti-trypsin, anti-plasmin, anti-kallikrein and anti-thrombin activities were determined according to the method of Muramatsu et al. (J. Biochem. (1965), volume 58, page 214).
# C1s = biological target: T2, C1s (Homo sapiens, UniProt P09871); test: anti-complement (anti-C1 esterase) activity, C1s hydrolysis of ATEE (acetyltyrosine ethyl ester); format: biochemical; details: hydrolysis of ATEE; read-out: Cls: molar concentration inhibiting 50% of C1s activity (IC50)
# T2 sequence (P09871 16-688): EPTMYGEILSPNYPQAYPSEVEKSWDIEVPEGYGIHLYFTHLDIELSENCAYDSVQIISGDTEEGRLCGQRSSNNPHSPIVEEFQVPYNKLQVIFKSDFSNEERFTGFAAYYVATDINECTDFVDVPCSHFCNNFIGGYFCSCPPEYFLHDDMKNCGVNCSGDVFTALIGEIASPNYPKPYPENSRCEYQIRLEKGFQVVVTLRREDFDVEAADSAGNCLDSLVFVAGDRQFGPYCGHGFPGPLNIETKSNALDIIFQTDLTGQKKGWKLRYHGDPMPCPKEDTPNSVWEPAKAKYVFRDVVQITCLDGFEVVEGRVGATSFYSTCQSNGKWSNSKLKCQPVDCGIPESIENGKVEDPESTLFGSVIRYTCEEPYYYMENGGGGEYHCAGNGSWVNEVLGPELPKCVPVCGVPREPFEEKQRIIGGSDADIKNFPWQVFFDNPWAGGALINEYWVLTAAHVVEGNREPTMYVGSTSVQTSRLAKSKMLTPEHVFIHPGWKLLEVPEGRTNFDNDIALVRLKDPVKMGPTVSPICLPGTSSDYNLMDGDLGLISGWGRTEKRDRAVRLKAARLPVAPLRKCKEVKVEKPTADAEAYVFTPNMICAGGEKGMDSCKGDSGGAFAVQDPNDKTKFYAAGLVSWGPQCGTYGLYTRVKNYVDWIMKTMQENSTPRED
# Protocol: The anti-C1 esterase (C1r, C1s) activity was determined according to the method of Okamura et al. (Biochem. Biophys. Acta (1973), volume 295, pages 252-257). […] The values for C1s represent molar concentrations (IC50) of test compounds which inhibit 50% of the activity of C1s to hydrolyze ATEE (acetyltyrosine ethyl ester).
# thrombin = thrombin (Homo sapiens, UniProt P00734); test: anti-thrombin activity, hydrolysis of TAME (tosylarginine methyl ester); format: biochemical; details: hydrolysis of TAME; read-out: Thr: molar concentration inhibiting 50% of enzyme activity (IC50)
# Protocol: as §1
# C1r = biological target: T3, C1r (Homo sapiens, UniProt P00736); test: anti-complement (anti-C1 esterase) activity, C1r hydrolysis of AAME (acetyl-arginine methyl ester); format: biochemical; details: hydrolysis of AAME; read-out: Clr: molar concentration inhibiting 50% of C1r activity (IC50)
# T3 sequence (P00736 18-705): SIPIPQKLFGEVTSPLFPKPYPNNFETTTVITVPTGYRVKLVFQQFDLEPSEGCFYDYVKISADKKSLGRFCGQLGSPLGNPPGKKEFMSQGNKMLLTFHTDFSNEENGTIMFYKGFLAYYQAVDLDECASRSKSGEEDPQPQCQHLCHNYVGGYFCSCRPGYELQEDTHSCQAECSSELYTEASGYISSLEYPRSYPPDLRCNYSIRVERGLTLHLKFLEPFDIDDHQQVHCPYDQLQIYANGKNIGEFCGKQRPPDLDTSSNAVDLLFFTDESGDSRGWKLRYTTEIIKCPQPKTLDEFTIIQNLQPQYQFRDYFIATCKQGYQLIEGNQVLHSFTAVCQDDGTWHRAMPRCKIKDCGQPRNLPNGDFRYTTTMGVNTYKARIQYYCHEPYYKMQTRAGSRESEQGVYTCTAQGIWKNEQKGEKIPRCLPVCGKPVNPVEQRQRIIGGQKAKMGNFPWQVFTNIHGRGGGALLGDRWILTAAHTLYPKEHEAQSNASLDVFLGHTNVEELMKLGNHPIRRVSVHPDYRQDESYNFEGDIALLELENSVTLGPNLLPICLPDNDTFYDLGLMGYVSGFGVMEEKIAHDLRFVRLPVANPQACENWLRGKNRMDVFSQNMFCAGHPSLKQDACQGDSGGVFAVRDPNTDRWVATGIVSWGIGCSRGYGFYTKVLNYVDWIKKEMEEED
# plasmin = plasmin (Homo sapiens, UniProt P00747); test: anti-plasmin activity, hydrolysis of TAME (tosylarginine methyl ester); format: biochemical; details: hydrolysis of TAME; read-out: Pla: molar concentration inhibiting 50% of enzyme activity (IC50)
# Protocol: as §1
# Chain of plasmin (P00747 581-810 limits assumed, species assumed): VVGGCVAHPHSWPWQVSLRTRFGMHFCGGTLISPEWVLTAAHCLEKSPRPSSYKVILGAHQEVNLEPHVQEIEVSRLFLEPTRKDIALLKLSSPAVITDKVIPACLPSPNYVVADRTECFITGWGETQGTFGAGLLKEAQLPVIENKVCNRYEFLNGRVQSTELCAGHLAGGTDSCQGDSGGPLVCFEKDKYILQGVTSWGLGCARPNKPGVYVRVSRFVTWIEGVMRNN
# Chain of plasmin (P00747 97-580 partner limits assumed, species assumed): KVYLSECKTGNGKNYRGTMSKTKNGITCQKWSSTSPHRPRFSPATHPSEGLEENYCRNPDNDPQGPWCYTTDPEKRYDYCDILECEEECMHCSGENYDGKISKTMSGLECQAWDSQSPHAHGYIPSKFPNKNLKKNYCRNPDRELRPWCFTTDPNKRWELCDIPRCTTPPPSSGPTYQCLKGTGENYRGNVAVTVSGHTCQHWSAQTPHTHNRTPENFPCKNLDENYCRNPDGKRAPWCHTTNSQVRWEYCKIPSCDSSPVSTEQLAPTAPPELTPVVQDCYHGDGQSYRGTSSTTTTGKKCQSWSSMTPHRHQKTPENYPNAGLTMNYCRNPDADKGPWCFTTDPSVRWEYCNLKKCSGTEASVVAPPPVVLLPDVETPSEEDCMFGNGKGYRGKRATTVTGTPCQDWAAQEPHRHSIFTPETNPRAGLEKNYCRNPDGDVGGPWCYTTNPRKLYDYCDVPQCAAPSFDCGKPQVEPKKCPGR
compound,measurement,setting,value
"Cl.N=C(N)c1ccc2cc(OC(=O)c3ccc(CNC(=O)CC(=O)O)o3)ccc2c1 [Example 17, 6-Amidino-2-naphthyl 5-carboxyacetylaminomethylfuran-2-carboxylate hydrochloride]",Protein concentration in urine,Masugi's nephritis,2.0 ± 2.0 mg/mL
same,IC50,trypsin,470 nM
same,Percentage inhibition (arthritis score),adjuvant arthritis,75.1%
same,IC50,kallikrein,1100 nM
same,IC50,C1s,53 nM
same,IC50,thrombin,1900 nM
same,IC50,C1r,1700 nM
same,IC50,plasmin,43 nM
